The text below walks through data of patent US11345673B2, “1-phenylpropanone compounds and use thereof” (UNIVERSITA' DEGLI STUDI DI PADOVA, priority 2016, dated 2022).

Data set [1] deals with breast cancer and multiple myeloma cells. As to conditions: cited from earlier work.
The next data set has as its system S1P1 receptor. Kind of data set: Immunosuppressive effect: Western blot of S1P1 receptor in LLC cells. It is filed as cell-based, human. As to conditions: incubation for discrete times (3 hours, 12 hours). Background: Immunoblotting shows a protein as a band on a membrane.
In data set [2] the test system is neuroblastoma (SK-N-BE) cells. As to the kind of experiment: Proapoptotic effect by flow cytofluorometry, SK-N-BE cells. It is filed as cell-based. As to conditions: Homo sapiens, three experiments in triplicate, read-out: IC50 ± S.D. (concentration required to cause 50% apoptosis), SK-N-BE. An excerpt: (§1) Flow cytofluorometry was used to evaluate the ability of some compounds of the invention to induce cell death, with particular reference to apoptosis. This latter phenomenon is characterized by morphological modification of the plasmatic membrane as a result of the translocation of the phospholipid phosphatidylserine (PS) in the plasmatic membrane from the cytoplasmic side to the outer surface of the cell. […] Annexin is detected because it is conjugated to a specific fluorochrome, thus allowing to distinguish apoptosis from necrotic phenomena, which are instead measured by the fluorescent dye propidium iodide, which penetrates freely in the cell having a damaged plasmatic membrane.
Both primary lymphocytic tumor cells taken from patients with chronic lymphatic leukemia (LLC) and humanized cell lines of neuroblastoma (SK-N-BE), hepatocarcinoma (HepG2 and HUH7.5) and breast cancer (MDA-MB-231) were used. […]
(§2) The results obtained by cytofluorometry from three separate experiments executed in triplicate were tabulated, estimating the concentration required to cause 50% apoptosis (IC50), and standard deviation.

Data set [3] concerns breast cancer (MDA-MB-231) cells. Kind of data set: Proapoptotic effect by flow cytofluorometry, MDA-MB-231 cells. It is filed as cell-based. Conditions: Homo sapiens, 24 hours incubation, three experiments in triplicate, read-out: IC50 ± S.D. (concentration required to cause 50% apoptosis), MDA-MB-231.
Text: as §1
(§3) Both primary lymphocytic tumor cells taken from patients with chronic lymphatic leukemia (LLC) and humanized cell lines of neuroblastoma (SK-N-BE), hepatocarcinoma (HepG2 and HUH7.5) and breast cancer (MDA-MB-231) were used.
(§4) HepG2 (2×10^5 cells per well), HUH7.5 and MDA-MB-231 (1.5×10^5 cells per well) cells were seeded on a 6-well plate in Dulbecco's Modified Eagle Medium (DMEM), 10% FBS and cultured at 37° C. in a 5% CO2 atmosphere. After 24 hours, the medium was removed and replaced by DMEM containing the test compounds, previously dissolved in 100% dimethylsulfoxide, and diluted such that the final concentration of the same in cell incubation solutions was 0.5% (v/v). After 30 minutes incubation, 10% FBS was added, and the cells were incubated for 24 hours, then detached with trypsin, and analyzed by cytofluorimeter. LLC cells (1×10^6 cells per well) were seeded and cultured on 12-well plates in RPMI-1640 medium, 10% FBS, at 37° C. in a humified atmosphere containing 5% CO2. To this medium, test compounds were added, and incubation was carried out for 24 hours, after which time the cells were analyzed by cytofluorimeter.
as §2

Data set [4] deals with hepatocarcinoma (HUH7.5) cells. Kind of data set: Proapoptotic effect by flow cytofluorometry, HUH7.5 cells. It is filed as cell-based. Conditions: Homo sapiens, 24 hours incubation, three experiments in triplicate, read-out: IC50 ± S.D. (concentration required to cause 50% apoptosis), HUH7.5.
Text: as §1, §3, §4, §2

Data set [5] has as its system hepatocarcinoma (HepG2) cells. Kind of data set: Proapoptotic effect by flow cytofluorometry, HepG2 cells. Conditions: Homo sapiens, 24 hours incubation, three experiments in triplicate, read-out: IC50 ± S.D. (concentration required to cause 50% apoptosis), HepG2. In kind it is cell-based.
Text: as §1, §3, §4, §2

The test system of data set [6] is primary lymphocytic tumor cells taken from patients with chronic lymphatic leukemia (LLC). As to the kind of experiment: Proapoptotic effect by annexin V/propidium iodide flow cytofluorometry, LLC cells. In kind it is cell-based. As to conditions: Homo sapiens, 24 hours incubation, three experiments in triplicate, read-out: IC50 ± S.D. (concentration required to cause 50% apoptosis), LLC.
Text: as §1, §3, §4
Leukemic lymphocytes were isolated, following heparinized venous withdrawal from peripheral blood of LLC patients, diluted with saline in a 1:3 ratio, layered on a Ficoll/Hypaque (F/H) density gradient, centrifuged at 900 rpm for 20 minutes, at 20° C. without brakes. Mononuclear cells and platelets, concentrating on top of the F/H gradient, were separated after 2 further washings, with centrifugation at 400 rpm at room temperature. The mononuclear cells thus obtained were washed 3 times with PBS, centrifuged for 10 minutes at 400 rpm, at 20° C. with brakes, and resuspended in RPMI 1640.
In most LLC cases, the percentage of leukemic B cells was higher than 85% with respect to all mononuclear cells from peripheral blood.
as §2

Method for S1P1 receptor: To this end, LLC cells (5×10^5 per well) were seeded and cultured on 12-well plates in RPMI-1640 medium, 10% FBS, at 37° C. in a humidified atmosphere containing 5% CO2, adding to the culture the various test compounds. Incubation was conducted for discrete times, at the end of which the cells were lysed to submit the protein content to Western blot analysis with antibodies that specifically recognize the S1P1 receptor.

In the case of `CCCCOc1ccc(C(=O)CCN2CCCCC2)cc1` [dyclonine], the IC50 in data set [1] (breast cancer and multiple myeloma cells, articles of D. Ju et al., read-out: induction of caspase-dependent apoptosis (IC50 values)) was 15000 to 30000 nM. Also, the “cytotoxic effects of dyclonine alone” value in data set [1] (in vitro, alone without MG132 or bortezomib) is on record as “very limited cytotoxic effects”.

For the compound `CCCCCCCCc1ccc(CCC(N)(CO)CO)cc1.Cl` [FTY720, 2-amino-2[2-(4-octylphenyl)ethyl]propane-1,3-diol hydrochloride], the “S1P1 receptor expression (Western blot, FIG. 1)” value in the data set with S1P1 receptor is “induces a rapid decrease of S1P1 receptor”.

Regarding `CCCCC[Se]c1ccc(C(=O)CCN2CCN(C)CC2)cc1` [Compound 21, 3-(4-methylpiperazin-1-yl)-1-(4-(pentylselenyl)phenyl)propan-1-one], the IC50 worked out at 13880 ± 130 nM in data set [2]; 14230 ± 140 nM in data set [3]; 13600 ± 90 nM in data set [4]; 15570 ± 30 nM in data set [5]; 14160 ± 90 nM in data set [6].

`CCCCCCCc1ccc(C(=O)CCN2CCOCC2)cc1` [Compound 24, 1-(4-heptylphenyl)-3-morpholinopropan-1-one]: the IC50 in data set [2] came to 500 ± 170 nM; in data set [3], 550 ± 80 nM; in data set [4], 500 ± 65 nM; in data set [5], 500 ± 80 nM; in data set [6] it was 500 ± 150 nM.

As for `CCCCCSc1ccc(C(=O)CCN2CCCCC2)cc1` [Compound 9, 1-(4-(pentylthio)phenyl)-3-(piperidin-1-yl)propan-1-one], the IC50 amounted to 1850 ± 140 nM in data set [2]; 1800 ± 60 nM in data set [3]; 1730 ± 90 nM in data set [4]; 1660 ± 100 nM in data set [5]; 1750 ± 40 nM in data set [6].

On to `CCCCCCOc1ccc(C(=O)CCN2CCCCC2)cc1` [Compound 3, 1-(4-(hexyloxy)phenyl)-3-(piperidin-1-yl)propan-1-one], for which the IC50 in data set [2] is 3000 ± 170 nM; in data set [3] it was 2600 ± 100 nM; in data set [4], 2750 ± 90 nM; in data set [5], 3070 ± 90 nM; in data set [6], 2530 ± 150 nM.
